In patent US20110178064A1, “SPIRO CONDENSED […] DERIVATIVES FOR USE AS ANTIBACTERIAL” (A[…]&D, priority 2007, published 2011) one finds IC50 data, which are given here for nine molecules.

What is called IC50 is the concentration that inhibits the measured activity by half.

Bounds are passed on as bounds.

The target in the assay is Escherichia coli DNA gyrase A/B tetramer (Escherichia coli, UniProt P0AES4+P0AES6). Description: DNA gyrase supercoiling activity fluorescence polarisation assay. The class given is biochemical. The procedure, abridged: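 Gyrase supercoiling reactions quenched with 40 nM 5′-BODIPY-FL oligodeoxynucleotide triplex probe in pH 3.5 NaCl/sodium acetate buffer; fluorescence anisotropy read after 60 min (485/535 nm).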
A general note: Polarisation of emitted light reports the rotation of a fluorescent probe.

Escherichia coli DNA gyrase A/B tetramer, sequence (P0AES4 whole entry, one chain of several): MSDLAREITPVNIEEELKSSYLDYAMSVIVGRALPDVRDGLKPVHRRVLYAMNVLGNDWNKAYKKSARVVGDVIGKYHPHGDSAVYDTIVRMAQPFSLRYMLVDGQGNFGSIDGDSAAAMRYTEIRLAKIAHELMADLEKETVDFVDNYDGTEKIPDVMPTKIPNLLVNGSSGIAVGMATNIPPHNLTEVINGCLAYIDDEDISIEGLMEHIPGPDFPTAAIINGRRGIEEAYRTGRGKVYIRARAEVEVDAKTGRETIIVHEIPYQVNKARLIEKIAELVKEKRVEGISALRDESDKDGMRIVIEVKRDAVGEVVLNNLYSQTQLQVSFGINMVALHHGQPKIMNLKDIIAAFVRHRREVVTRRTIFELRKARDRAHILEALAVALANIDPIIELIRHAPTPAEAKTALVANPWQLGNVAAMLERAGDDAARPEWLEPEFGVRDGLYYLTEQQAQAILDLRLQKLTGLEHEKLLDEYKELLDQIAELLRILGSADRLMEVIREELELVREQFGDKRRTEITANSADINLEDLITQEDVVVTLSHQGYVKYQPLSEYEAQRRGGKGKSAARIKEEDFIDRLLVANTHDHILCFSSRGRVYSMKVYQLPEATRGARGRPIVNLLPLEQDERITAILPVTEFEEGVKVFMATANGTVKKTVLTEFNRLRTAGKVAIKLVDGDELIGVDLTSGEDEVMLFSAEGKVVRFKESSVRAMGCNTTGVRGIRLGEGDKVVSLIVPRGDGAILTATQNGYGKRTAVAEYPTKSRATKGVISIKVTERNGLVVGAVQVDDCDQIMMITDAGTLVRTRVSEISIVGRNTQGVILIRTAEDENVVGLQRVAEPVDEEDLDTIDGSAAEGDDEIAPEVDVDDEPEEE

In turn, `Cc1ccccc1-c1cnc2c(c1)CC1(C(=O)NC(=O)NC1=O)[C@H]1[C@H](C)O[C@H](C)CN21` (relative stereo) [Example 82, (6aS,7S,9R)-rel-7,9-Dimethyl-3-(2-methylphenyl)-6a,7,9,10-tetrahydro-2′H,5H-spiro[1,4-oxazino[4,3-a][1,8]naphthyridine-6,5′-pyrimidine]-2′,4′,6′(1′H,3′H)-trione] had an IC50 of over 83 µM. The value for `COc1ccccc1-c1cnc2c(c1)CC1(C(=O)NC(=O)NC1=O)[C@H]1[C@H](C)O[C@H](C)CN21` (relative stereo) [Example 83, (6aS,7S,9R)-rel-3-(2-Methoxyphenyl)-7,9-dimethyl-6a,7,9,10-tetrahydro-2′H,5H-spiro[1,4-oxazino[4,3-a][1,8]naphthyridine-6,5′-pyrimidine]-2′,4′,6′(1′H,3′H)-trione] was over 83 µM. The value for `C[C@@H]1CN2c3ncc(-c4ccccc4)cc3CC3(C(=O)NC(=O)NC3=O)[C@H]2[C@H](C)O1` (relative stereo) [Example 84, (6aS,7S,9R)-rel-7,9-Dimethyl-3-phenyl-6a,7,9,10-tetrahydro-2′H,5H-spiro[1,4-oxazino[4,3-a][1,8]naphthyridine-6,5′-pyrimidine]-2′,4′,6′(1′H,3′H)-trione] was 7 µM; that for `C[C@@H]1CN2c3ccc(-c4nccs4)nc3CC3(C(=O)NC(=O)NC3=O)[C@H]2[C@H](C)O1` (relative stereo) [Example 85, (2R,4S,4aS)-rel-2,4-Dimethyl-8-(1,3-thiazol-2-yl)-1,2,4,4a-tetrahydro-2′H,6H-spiro[1,4-oxazino[4,3-a][1,5]naphthyridine-5,5′-pyrimidine]-2′,4′,6′(1′H,3′H)-trione] was 8 µM; that for `C[C@@H]1CN2c3ncc(-c4nc5ccccc5s4)cc3CC3(C(=O)NC(=O)NC3=O)[C@H]2[C@H](C)O1` (relative stereo) [Example 87, (6aS,7S,9R)-rel-3-(1,3-Benzothiazol-2-yl)-7,9-dimethyl-6a,7,9,10-tetrahydro-2′H,5H-spiro[1,4-oxazino[4,3-a][1,8]naphthyridine-6,5′-pyrimidine]-2′,4′,6′(1′H,3′H)-trione] was 4 µM.

`C[C@@H]1CN2c3ccc(-c4nc5ccccc5s4)nc3CC3(C(=O)NC(=O)NC3=O)[C@H]2[C@H](C)O1` (relative stereo) [Example 88, (2R,4S,4aS)-rel-8-(1,3-Benzothiazol-2-yl)-2,4-dimethyl-1,2,4,4a-tetrahydro-2′H,6H-spiro[1,4-oxazino[4,3-a][1,5]naphthyridine-5,5′-pyrimidine]-2′,4′,6′(1′H,3′H)-trione] gave a half-inhibitory concentration (IC50) of 2 µM. Against the preceding molecule, the IC50 is about 2-fold lower. `C[C@@H]1CN2c3cnc(-c4nc5ccccc5s4)cc3CC3(C(=O)NC(=O)NC3=O)[C@H]2[C@H](C)O1` (relative stereo) [Example 89, (6aS,7S,9R)-rel-3-(1,3-benzothiazol-2-yl)-7,9-dimethyl-6a,7,9,10-tetrahydro-2′H,5H-spiro[1,4-oxazino[4,3-a][1,7]naphthyridine-6,5′-pyrimidine]-2′,4′,6′(1′H,3′H)-trione] had an IC50 of 11 µM. Molecule `C[C@@H]1CN2c3ncc(-c4cncn4C)cc3CC3(C(=O)NC(=O)NC3=O)[C@H]2[C@H](C)O1` (relative stereo) [Example 90, (6aS,7S,9R)-rel-7,9-Dimethyl-3-(1-methyl-1H-imidazol-5-yl)-6a,7,9,10-tetrahydro-2′H,5H-spiro[1,4-oxazino[4,3-a][1,8]naphthyridine-6,5′-pyrimidine]-2′,4′,6′(1′H,3′H)-trione] displayed an IC50 of 21 µM. The result for `COc1nccnc1-c1cnc2c(c1)CC1(C(=O)NC(=O)NC1=O)[C@H]1[C@H](C)O[C@H](C)CN21` (relative stereo) [Example 92, (6aS,7S,9R)-rel-3-(3-Methoxypyrazin-2-yl)-7,9-dimethyl-6a,7,9,10-tetrahydro-2′H,5H-spiro[1,4-oxazino[4,3-a][1,8]naphthyridine-6,5′-pyrimidine]-2′,4′,6′(1′H,3′H)-trione] reads 20 µM.
